The experiment has as its system Escherichia coli (ATCC 11229)/Staphylococcus aureus (ATCC 6538)/Pseudomonas aeruginosa (ATCC 27853). Briefly: Zone of Inhibition Test, control line (organism not stated). It is filed as cell-based. The conditions noted are these: 5 μg disk, n = 1; one value only, organism not assigned; 48 hours at ambient temperature. The method, then: Zone of inhibition testing with a variety of gram negative and gram positive bacteria was performed. The test material was brought into contact with a known amount of test microorganisms on an agar plate for 48 hours at ambient temperature. At the end of the contact time the diameter of inhibited colony formation (zone of inhibition) surrounding the test material was measured.
Referenced method AATCC 147-1998 “Antibacterial Activity Assessment of Textile Materials: Parallel Streak Method” with changes for following Zone of Inhibition procedure (AATCC is “American Association of Textile Chemists and Colorists” located in Research Triangle Park, N.C.):
Organisms used in this study were Escherichia coli (ATCC 11229)/Staphylococcus aureus (ATCC 6538)/Pseudomonas aeruginosa (ATCC 27853) (ATCC is “American Type Culture Collection” an organization in Manassas, Va.). Washed cells were diluted in Butterfield's Phosphate buffer to a target titer of approximately 10^8 colony forming units (CFU)/mL. Agar plates for testing were brought to room temperature prior to inoculation. A sterile applicator swab was placed in cell suspension and excess fluid was expressed using the side of the centrifuge tube. […] At the end of the contact time, the diameter of inhibited colony formation (zone of inhibition) surrounding the test material was measured.

The text below walks through data of patent US20150181863A1, “FLEXIBLE SUPERABSORBENT BINDER POLYMER AND ANTIMICROBIAL AGENT COMPOSITION” (EVONIK INDUSTRIES AG, priority 2013, published 2015).

The structures appear in SMILES notation.

As to `CN[C@H](CC(C)C)C(=O)N[C@H]1C(=O)N[C@@H](CC(N)=O)C(=O)N[C@H]2C(=O)N[C@H]3C(=O)N[C@H](C(=O)N[C@H](C(=O)O)c4cc(O)cc(O)c4-c4cc3ccc4O)[C@H](O)c3ccc(c(Cl)c3)Oc3cc2cc(c3O[C@@H]2O[C@H](CO)[C@@H](O)[C@H](O)[C@H]2O[C@H]2C[C@](C)(N)[C@H](O)[C@H](C)O2)Oc2ccc(cc2Cl)[C@H]1O` [Positive Control, vancomycin], the “ZOI* (cm), single value for control” value is 1.9 cm.
